Measurements taken from ChEMBL document CHEMBL1201862, “PubChem BioAssay data set” (2004).
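Cells were grown in 96-well plates and exposed to each compound for 48 hours at five concentrations; endpoints were interpolated linearly between bracketing concentrations, or set to the highest concentration if not reached. GI50 is the concentration that inhibits growth by half.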 The source made the active and inactive calls. Rule as the data show it: active = GI50 up to about 1.1 µM and inactive = higher.

Legend:
Assay in all cases: inhibition of tumour cell growth, NCI panel, 48 h
IGROV-1 = test system: IGROV-1
SK-MEL-5 = test system: SK-MEL-5
OVCAR-8 = test system: OVCAR-8
OVCAR-5 = test system: OVCAR-5
COLO 205 = test system: COLO 205
SN12C = test system: SN12C
LOX IMVI = test system: LOX IMVI
RXF 393 = test system: RXF 393
SK-MEL-2 = test system: SK-MEL-2
786-0 = test system: 786-0
NCI-H522 = test system: NCI-H522
A498 = test system: A498
NCI-H226 = test system: NCI-H226
HCT-15 = test system: HCT-15
HT-29 = test system: HT-29

| SMILES | GI50 (IGROV-1) | GI50 (SK-MEL-5) | GI50 (OVCAR-8) | GI50 (OVCAR-5) | GI50 (COLO 205) | GI50 (SN12C) | GI50 (LOX IMVI) | GI50 (RXF 393) | GI50 (SK-MEL-2) | GI50 (786-0) | GI50 (NCI-H522) | GI50 (A498) | GI50 (NCI-H226) | GI50 (HCT-15) | GI50 (HT-29) |
| --- | --- | --- | --- | --- | --- | --- | --- | --- | --- | --- | --- | --- | --- | --- | --- |
| O=C1c2c(c(-c3ccccc3)c(-c3ccccc3)c(-c3ccccc3)c2-c2ccccc2)C(=O)N1c1cccc(Br)c1 | > 100 µM (inactive) | > 100 µM (inactive) | > 100 µM (inactive) | > 100 µM (inactive) | > 100 µM (inactive) | > 100 µM (inactive) | > 100 µM (inactive) | > 100 µM (inactive) | > 100 µM (inactive) | > 100 µM (inactive) | > 100 µM (inactive) | > 100 µM (inactive) | > 100 µM (inactive) | > 100 µM | – |
| O=C(NC(=O)c1cn(CCNCCO)c(=O)[nH]c1=O)OCc1ccccc1 | > 100 µM (inactive) | > 100 µM (inactive) | > 100 µM (inactive) | > 100 µM (inactive) | > 100 µM (inactive) | > 100 µM (inactive) | > 100 µM (inactive) | > 100 µM (inactive) | – | > 100 µM (inactive) | > 100 µM (inactive) | – | > 100 µM (inactive) | > 100 µM | > 100 µM (inactive) |
| CC(=O)Nc1ccc(-c2nnc(SCC(=O)Nc3ccc(Cl)cc3)o2)cc1 | 12.2 µM (inactive) | 5.69 µM (inactive) | 12.5 µM (inactive) | 16.4 µM (inactive) | 17.6 µM (inactive) | 10.4 µM (inactive) | 5.33 µM (inactive) | 10 µM (inactive) | 17.5 µM (inactive) | 5.78 µM (inactive) | 2.34 µM (inactive) | 14.8 µM (inactive) | 11.1 µM (inactive) | 13.9 µM | 10.6 µM (inactive) |
| CC(=O)O[C@H]1CC[C@@]2(C)C(=CC[C@@H]3C2CC[C@]2(C)Nc4nc5ccccc5cc4CC32)C1 (some centres undefined) | 11.7 µM (inactive) | 4.1 µM (inactive) | 3.13 µM (inactive) | 13.9 µM (inactive) | 7.66 µM (inactive) | 7.1 µM (inactive) | – | 2.07 µM (inactive) | 17 µM (inactive) | 3.28 µM (inactive) | 11.4 µM (inactive) | 5.47 µM (inactive) | 3.05 µM (inactive) | 2.51 µM | 1.82 µM (inactive) |
| COc1ccc(C2S/C(=C\c3ccc(OC)cc3OC)C(=O)N2NC(=O)Cc2ccccc2)cc1 (centres undefined) | > 100 µM (inactive) | > 100 µM (inactive) | > 100 µM (inactive) | > 100 µM (inactive) | > 100 µM (inactive) | > 100 µM (inactive) | > 100 µM (inactive) | > 100 µM (inactive) | > 100 µM (inactive) | > 100 µM (inactive) | > 100 µM (inactive) | > 100 µM (inactive) | > 100 µM (inactive) | > 100 µM | > 100 µM (inactive) |
| CN(C)CCONC(=O)C12CC3CC(CC(C3)C1)C2 | > 100 µM (inactive) | > 100 µM (inactive) | > 100 µM (inactive) | > 100 µM (inactive) | > 100 µM (inactive) | > 100 µM (inactive) | > 100 µM (inactive) | > 100 µM (inactive) | > 100 µM (inactive) | > 100 µM (inactive) | > 100 µM (inactive) | > 100 µM (inactive) | > 100 µM (inactive) | > 100 µM | > 100 µM (inactive) |
| COc1c2c(c(OC)c3c(=O)cc(C/C(=N/NC(=O)C[n+]4ccccc4)C(=O)Nc4cc(C)ccc4C)oc13)OCO2 | > 100 µM (inactive) | > 100 µM (inactive) | > 100 µM (inactive) | > 100 µM (inactive) | > 100 µM (inactive) | > 100 µM (inactive) | > 100 µM (inactive) | > 100 µM (inactive) | > 100 µM (inactive) | > 100 µM (inactive) | > 100 µM (inactive) | > 100 µM (inactive) | – | > 100 µM | > 100 µM (inactive) |
| CN(C)/N=C(/c1nc2ccc([N+](=O)[O-])cc2nc1O)C(O)c1ccco1 (centres undefined) | 90.4 µM (inactive) | 70.1 µM (inactive) | > 100 µM (inactive) | > 100 µM (inactive) | > 100 µM (inactive) | > 100 µM (inactive) | 50 µM (inactive) | > 100 µM (inactive) | – | > 100 µM (inactive) | 8.57 µM (inactive) | – | > 100 µM (inactive) | 26.2 µM | > 100 µM (inactive) |
| COc1cc(OC)c2c(c1)C(=O)C(CC(C)O)=CC2=O (centres undefined) | 18.2 µM (inactive) | 14.7 µM (inactive) | 15.7 µM (inactive) | 18.4 µM (inactive) | 18.6 µM (inactive) | 18.7 µM (inactive) | 5.97 µM (inactive) | 12.7 µM (inactive) | 19.7 µM (inactive) | 16.2 µM (inactive) | 14.4 µM (inactive) | 17.8 µM (inactive) | 20.8 µM (inactive) | 14.6 µM | 19.1 µM (inactive) |
| CCc1cccc(C(C)CC)c1/N=C(/NC(=O)c1ccccc1C(=O)N/C(=N/c1c(CC)cccc1C(C)CC)SC)SC (centres undefined) | 38.7 µM (inactive) | – | 59.2 µM (inactive) | 60.1 µM (inactive) | 40.6 µM (inactive) | 40.1 µM (inactive) | 31.3 µM (inactive) | 35.5 µM (inactive) | 40.9 µM (inactive) | 49.3 µM (inactive) | 28.2 µM (inactive) | – | 17.7 µM (inactive) | 40.1 µM | 40.4 µM (inactive) |
| COc1c(CC(C)=O)ccc2c1C(=O)c1ccc(C=O)c(OC(C)=O)c1C2=O | 18.9 µM (inactive) | 14.1 µM (inactive) | 9.51 µM (inactive) | 15.3 µM (inactive) | 16.1 µM (inactive) | 12.9 µM (inactive) | 14.3 µM (inactive) | 4.09 µM (inactive) | 15.2 µM (inactive) | 6.32 µM (inactive) | 2.15 µM (inactive) | 27.3 µM (inactive) | 15.7 µM (inactive) | 5.57 µM | 13.9 µM (inactive) |
| CC(=O)N1c2ccccc2N(C(C)=O)C1c1ccc(C2N(C(C)=O)c3ccccc3N2C(C)=O)[nH]1 | > 100 µM (inactive) | > 100 µM (inactive) | > 100 µM (inactive) | > 100 µM (inactive) | > 100 µM (inactive) | > 100 µM (inactive) | > 100 µM (inactive) | > 100 µM (inactive) | – | > 100 µM (inactive) | > 100 µM (inactive) | > 100 µM (inactive) | > 100 µM (inactive) | > 100 µM | > 100 µM (inactive) |
| CC1CN(c2ccc(Cl)cc2)CC(C)OC(=O)O1 (centres undefined) | > 100 µM (inactive) | > 100 µM (inactive) | > 100 µM (inactive) | > 100 µM (inactive) | > 100 µM (inactive) | > 100 µM (inactive) | > 100 µM (inactive) | > 100 µM (inactive) | > 100 µM (inactive) | > 100 µM (inactive) | > 100 µM (inactive) | – | > 100 µM (inactive) | > 100 µM | > 100 µM (inactive) |
| Cc1ccc(S(=O)(=O)N/N=C/c2oc(-c3ccncc3)c(-c3ccncc3)c2[N+](=O)[O-])cc1 | > 100 µM (inactive) | > 100 µM (inactive) | > 100 µM (inactive) | > 100 µM (inactive) | > 100 µM (inactive) | > 100 µM (inactive) | > 100 µM (inactive) | > 100 µM (inactive) | > 100 µM (inactive) | > 100 µM (inactive) | > 100 µM (inactive) | > 100 µM (inactive) | > 100 µM (inactive) | > 100 µM | > 100 µM (inactive) |
| Clc1ccc(OCc2nnc3n2N=C(c2ccc(Br)cc2)CS3)cc1 | – | > 10 µM (inactive) | 15.9 µM (inactive) | > 100 µM (inactive) | – | 52.8 µM (inactive) | 3.74 µM (inactive) | 12.1 µM (inactive) | 23.4 µM (inactive) | 16.4 µM (inactive) | 7.1 µM (inactive) | 5.36 µM (inactive) | 53.1 µM (inactive) | 51.3 µM | 36.2 µM (inactive) |
| CC1CCC(C(C)(C)c2ccccc2)C(=O)C1 (centres undefined) | > 100 µM (inactive) | > 100 µM (inactive) | > 100 µM (inactive) | > 100 µM (inactive) | > 100 µM (inactive) | > 100 µM (inactive) | > 100 µM (inactive) | – | > 100 µM (inactive) | > 100 µM (inactive) | – | > 100 µM (inactive) | – | > 100 µM | > 100 µM (inactive) |
| CN1C(OCc2ccccc2)c2c(ccc3c2OCO3)C2C=Cc3cc4c(cc3C21)OCO4 (centres undefined) | 0.792 µM (active) | 1.31 µM (inactive) | 0.319 µM (active) | 1.52 µM (inactive) | 1.02 µM (active) | 1.32 µM (inactive) | 0.182 µM (active) | 1.1 µM (active) | 1.55 µM (inactive) | 1.36 µM (inactive) | 0.989 µM (active) | – | 1.47 µM (inactive) | 0.597 µM | 0.375 µM (active) |
| COC(=O)CCC(NC(=S)N/N=C(\C)c1ccccn1)C(=O)OC (centres undefined) | 82.8 µM (inactive) | 40.5 µM (inactive) | 66.8 µM (inactive) | 25.9 µM (inactive) | 30 µM (inactive) | 89.1 µM (inactive) | 44.2 µM (inactive) | 35 µM (inactive) | > 100 µM (inactive) | 65.8 µM (inactive) | 33.3 µM (inactive) | > 100 µM (inactive) | 60.7 µM (inactive) | 40.9 µM | > 100 µM (inactive) |
| Cc1[nH]c2ccccc2c1C1CC(=O)NC1=O (centres undefined) | > 100 µM (inactive) | > 100 µM (inactive) | > 100 µM (inactive) | > 100 µM (inactive) | – | – | – | > 100 µM (inactive) | > 100 µM (inactive) | > 100 µM (inactive) | – | > 100 µM (inactive) | > 100 µM (inactive) | > 100 µM | > 10 µM (inactive) |
| C/C(=C\c1ccccc1)C(O)S(=O)(=O)O (centres undefined) | > 100 µM (inactive) | > 100 µM (inactive) | > 100 µM (inactive) | > 100 µM (inactive) | > 100 µM (inactive) | > 100 µM (inactive) | > 100 µM (inactive) | > 100 µM (inactive) | > 100 µM (inactive) | > 100 µM (inactive) | > 100 µM (inactive) | > 100 µM (inactive) | > 100 µM (inactive) | > 100 µM | > 100 µM (inactive) |
